System: mouse embryonic fibroblasts (MEF)
Experiment: tunicamycin ER stress response in MEFs (XBP-1 models)
Type: cell-based
Method: ER stress responses in XBP-1s overexpressing cells, XBP-1^−/− cells and their controls. (A) Induction of XBP-1s expression upon removal of doxycycline in mouse embryonic fibroblasts (MEF). (B) Southern blot analysis of XBP-1^−/− MEF cells and their WT controls for the wild type (9.4 kb) and targeted (6.5 kb) alleles. (C) PERK phosphorylation (p-PERK) and JNK activity in the XBP-1s overexpressing cells and their control cells (−Dox and +Dox, respectively) upon tunicamycin treatment (Tun, 2 μg/ml). (D) PERK phosphorylation and JNK activity upon low dose tunicamycin treatment (Tun, 0.5 μg/ml) in XBP-1^−/− MEF cells and their WT controls. (E) IRS-1 Ser307 phosphorylation upon tunicamycin treatment (Tun, 2 μg/ml) in the XBP-1s overexpressing and the control cells (−Dox and +Dox, respectively), detected using immunoprecipitation (IP) of IRS-1 followed by immunoblotting (IB) with an IRS-1 phosphoserine 307-specific antibody. […] The ratio of IRS-1 tyrosine phosphorylation to total IRS-1 level was summarized from independent experiments and was presented in the graph. (G) IRS-1 Ser307 phosphorylation upon tunicamycin treatment (Tun, 0.5 μg/ml) in XBP-1^−/− cells and WT controls was detected as described in […]. […] (H) Insulin-stimulated tyrosine phosphorylation of IRS-1 in XBP-1^−/− and WT control cells with or without tunicamycin treatment (Tun, 0.5 μg/ml). The ratio of IRS-1 tyrosine phosphorylation to total IRS-1 level was summarized from independent experiments and presented in the graph. All graphs show mean±SEM from at least 2 independent experiments and statistically significance from the controls is indicated by * with p<0.005.
The transcription factor XBP-1 is a bZIP protein. The spliced or processed form of XBP-1 (XBP-1s) is a key factor in the transcriptional regulation of molecular chaperones and enhances the compensatory UPR (Calfon et al., Nature 415, 92 (2002); Shen et al., Cell 107:893 (2001); Yoshida et al., Cell 107:881 (2001); Lee et al., Mol. Cell Biol. 23:7448 (2003); each of which is incorporated herein by reference). We therefore reasoned that modulation of XBP-1s levels in cells should alter insulin action via its potential impact on the magnitude of the ER stress responses. To test this possibility, we established XBP-1 gain- and loss-of-function cellular models. First, we established an inducible gene expression system where exogenous XBP-1s is expressed only in the absence of tetracycline/doxycycline (FIG. 13A). In parallel, we also studied MEFs derived from XBP-1^−/− mouse embryos (Lee et al., Mol. Cell Biol. 23, 7448 (2003); A. M. Reimold et al., Genes Dev. 14, 152 (2000); Reimold et al., Nature 412, 300 (2001); each of which is incorporated herein by reference) (FIG. 13B). […] Upon induction of XBP-1s expression, there was a dramatic reduction in both PERK phosphorylation and JNK activation following tunicamycin treatment (FIG. 13C). […] Thus alterations in the levels of cellular XBP-1s protein result in alterations in the ER stress response.
Cells: Rat Fao liver cells were cultured with RPMI 1640 (Gibco, Grand Island, N.Y.) containing 10% fetal bovine serum (FBS). At 70-80% confluency, cells were serum depleted for 12 hours before starting the experiments. Reagents including tunicamycin, thapsigargin, and JNK inhibitors were gently added to the culture dishes in the incubator to prevent any environmental stress. JNK inhibitors were added 1 hour before tunicamycin/thapsigargin treatment. The XBP-1^−/− mouse embryonic fibroblasts (MEF) (A. H. Lee, N. N. Iwakoshi, L. H. Glimcher, Mol. Cell. Biol. 23:7448 (2003); incorporated herein by reference), IRE-1α^−/− MEF cells (kindly provided by Dr. David Ron, New York University School of Medicine), and their wild type controls were cultured in Dulbecco's Modified Eagle Medium (DMEM) (Gibco, Grand Island, N.Y.) containing 10% FBS. A similar protocol was followed for experiments in MEF cells, except that the cells were serum depleted for only 6 hours. […]

[1] = fibroblasts without exogenous XBP-1s expression, 2 μg/ml

Question: Which results are given for tunicamycin?
Answer: ER stress (WT cells, low dose 0.5 μg/ml): failed to stimulate significant ER stress; ER stress response (XBP-1−/− MEFs, low dose 0.5 μg/ml): strong ER stress response; PERK phosphorylation [1]: strong PERK phosphorylation; PERK phosphorylation, peak [1]: 3 to 4 h; PERK phosphorylation, start [1]: 30 min; activation of JNK [1]: rapid and robust activation
